# From US4690823A, “Ibuprofen-containing soft gelatin capsules and process for preparing same” (Dolorgiet Beteiligungs-GmbH, priority 1984, dated 1987)
# Experiment: Precipitation of ibuprofen from solution on contact with aqueous medium / artificial gastric juice or on cooling
# Type: physicochemical
# Details: addition of small amounts of water, or aqueous medium such as artificial gastric juice
# From the text: It is an object of the present invention to provide a medicament that can be readily taken that contains an active amount of ibuprofen in a carrier, that is simple to prepare and that will quickly display a high activity. […] When such a solution, upon oral administration, gets into the stomach, then the aqueous content of the stomach causes the ibuprofen to be precipitated so that it will be barred from a quick resorption. […] In addition, these solutions may be incorporated in soft gelatin capsules in a per se known manner. The latter dosage form has an advantage over all other previously known dosage forms for ibuprofen that upon intake the active ingredient is quickly resorbed. To this effect it is not necessary that, subsequent to synthesis, the active ingredient is subjected to expensive galenic processing measures. […] In order to dissolve ibuprofen in the solvents according to the invention, the solvents are heated at 45° C. to 65° C., since only at these temperatures the dissolution will take place sufficiently fast. Upon cooling to room temperature, no reprecipitation occurs. […] It is readily possible that 40 parts by weight are additionally suspended in said solutions at room temperature and thereafter incorporated in soft gelatin capsules. […]
smiles,measurement,value
"CC(C)Cc1ccc(C(C)C(=O)O)cc1 (stereo not shown) [Ibuprofen, 2-(4-isobutylphenyl)propionic acid]",precipitation on contact with aqueous medium (in words),will immediately precipitate upon the addition of small amounts of water
